# Test results as given in patent US5157052A, “Method for inhibiting IgE production” (priority 1990, dated 1992).
# How the values were obtained:
# [1] = test system: IgE; assay: Serum IgE response induced by FF1-4D5 + H∂A1 anti-IgD antibodies (ELISA, Assay A / Assay F); assay type: in vivo, mouse (Balb/c female); conditions: 20 μg days 3 and 4
# Procedure: Mouse hybridoma cells expressing either FF1-4D5 antibody or H∂A1 antibody are thawed, established in culture, and incubated in mice as ascite tumors. FF1-4D5 antibody is a mouse IgG2a monoclonal antibody of the b allotype that binds the Fd fragment of the ∂ chain of the a allotype IgD which activates β cells through antigen internalization and processing, promoting cognate interactions with antigen-specific T cells (D. K. Goroff et al., J. Immunol. 136: 2382 (1986)). H∂A1 antibody is a mouse IgG2b of the b allotype that binds the Fc fragment of the ∂ chain of the a allotype IgD which activates β cells through crosslinking IgD (I. M. Zitron and B. L. Clevinger, J. Exp. Med. 152: 1135 (1980)). Each antibody is purified from their respective ascites tumor fluid. […] Serum from the injected mice is recovered and the mean concentration of IgE determined.
# Serum levels of IgE are determined and IgE levels are shown to be inhibited in a dose dependent manner.
# ELISA (enzyme linked immunosorbant assay) measurements of IgE are as follows. About 5 μg of B1E3 antibody in 100 μl borate buffered saline (pH8.5) is added to wells of a NuncImmulon II 96 well plate (DiRuscio & Assoc., St. Louis, Mo.) at 37° C. for 90 minutes. The non-bound antibody is removed by flicking the plate. Unreacted sites on the plastic plate are blocked by adding about 200 μl of a 2% solution of newborn bovine serum (NBS) in PBS at 37° C. for 60 minutes. The standard IgE (or an unknown murine serum sample) is diluted to between about 4 ng/ml-256 ng/ml in Hanks-HS (20 mM Hepes, 2% NBS in Hanks Balanced Salt Solution, Gibco, Grand Island, N.Y.) or to 1/200 to 1/1000 in Hanks-HS respectively. 100 μl of standard (or unknown dilutions) are added in triplicate to the wells of the plate and allowed to absorb to B1E3 antibody at about 37° C. for 2-4 hours. The solution is removed by flicking the plate and each well is washed with about 0.5 ml 0.05% Tween 20-PBS 5 times. About 100 μl of biotinylated R1E4, called the primary antibody, diluted to 200 ng/ml is added to all wells and incubated at about 4° C. overnight. The solution is removed by flicking the plate and washed 5 times as described above. The developing reagent (Avidin and biotin-horse radish peroxidase) is incubated in 2% NBS in PBS at ambient temperature for 30 minutes, according to manufacturer's specifications (Vector Laboratories, Burlingame, Calif.). About 100 μl of developing reagent is added to each well and incubated at ambient temperature for 30 minutes. Colorimetric substrate for the developing reagent (ABTS peroxidase substrate system, KPL, Gaithersburg, Md.) is prepared by mixing equal volumes of solutions A and B and incubating at ambient temperature for 60 minutes. The developing reagent solution is removed by flicking the plate and washed 5 times as described above. About 100 μl of the mixture of substrates is added to each well and incubated at ambient temperature for 60 minutes. The optical density of each well is determined on a BioTek ELISA reader (Biotek Instruments, Inc., Burlington, Vermont) and the absorbance data transferred electronically to a DEC VAX mainframe computer. A standard curve is fitted to the IgE standard optical densities using straight line, linear regression statistical fits. IgE in the unknown serum samples is determined by comparing the optical density of the unknown to the standard curve and multiplying that number by the dilution of serum used in the assay.
# Stimulation of a transient serum IgE response in mouse with two monoclonal antibodies directed against IgD is carried out as follows.
# Mouse hybridoma cells expressing either FF1-4D5 antibody or H∂Al antibody are thawed, established in culture, and incubated in CB6 F1 female mice as an ascites tumor and each immunoglobulin is purified from the ascites fluid as described above. […]
# [2] = test system: IgG3; assay: Serum IgG3 in anti-IgD stimulated mice (two site sandwich ELISA, Assay D); assay type: in vivo, mouse (Balb/c female); conditions: 20 μg days 3 and 4
# [3] = test system: IgE; assay: ED50 for inhibition of IgE calculated from the examples; assay type: in vivo, mouse; conditions: dose to achieve 50% inhibition of IgE
# Procedure: From the data in the above examples, the effective dose of each prostaglandin to achieve 50% inhibition of IgE (ED50) was calculated.
compound,measurement,setting,value
CCCCC(C)(O)C/C=C/[C@H]1[C@H](O)CC(=O)[C@@H]1CCC1CC1CCC(=O)OC (relative stereo) [(±) methyl 2-[2-[3R-3α-hydroxy-2β-(4-hydroxy-4-methyl-1E-octenyl)-5-oxo-1α-cyclopentyl]ethyl]cyclopropanepropanoate],de novo IgE synthesis,[1]; Example 23,inhibit de novo IgE synthesis
same,IgE ± SD,"[1]; Table 12, day 8 (control 11398)",3034 ± 878 ng/mL
same,inhibition of IgG3,[2]; Example 23,"not IgG1, IgG2a or IgG3"
same,IgG3 ± SD,"[2]; Table 12, day 8 (control 584)",901 ± 213 µg/mL
same,ED50 IgE Inhibition,[3],1.0 μg/mouse/TID
